{"source": "patent US20090076009A1", "about": "“THIAZOLE DERIVATIVES AND THEIR USE AS ANTI-TUMOUR AGENTS” (priority 2006, published 2009)", "key": {"p110α Type Ia human PI3K": {"molecular_target": "T1, p110α Type Ia human PI3K (Homo sapiens, UniProt P42336)", "T1 construct": "full length DNA of each of the p110α, p110β and p110δ Type Ia human PI3K p110 isoforms; 6-His; made in house; Grp1 PH domain in E. coli", "T1 sequence (P27986 whole entry, the tested form may be a part, canonical isoform)": "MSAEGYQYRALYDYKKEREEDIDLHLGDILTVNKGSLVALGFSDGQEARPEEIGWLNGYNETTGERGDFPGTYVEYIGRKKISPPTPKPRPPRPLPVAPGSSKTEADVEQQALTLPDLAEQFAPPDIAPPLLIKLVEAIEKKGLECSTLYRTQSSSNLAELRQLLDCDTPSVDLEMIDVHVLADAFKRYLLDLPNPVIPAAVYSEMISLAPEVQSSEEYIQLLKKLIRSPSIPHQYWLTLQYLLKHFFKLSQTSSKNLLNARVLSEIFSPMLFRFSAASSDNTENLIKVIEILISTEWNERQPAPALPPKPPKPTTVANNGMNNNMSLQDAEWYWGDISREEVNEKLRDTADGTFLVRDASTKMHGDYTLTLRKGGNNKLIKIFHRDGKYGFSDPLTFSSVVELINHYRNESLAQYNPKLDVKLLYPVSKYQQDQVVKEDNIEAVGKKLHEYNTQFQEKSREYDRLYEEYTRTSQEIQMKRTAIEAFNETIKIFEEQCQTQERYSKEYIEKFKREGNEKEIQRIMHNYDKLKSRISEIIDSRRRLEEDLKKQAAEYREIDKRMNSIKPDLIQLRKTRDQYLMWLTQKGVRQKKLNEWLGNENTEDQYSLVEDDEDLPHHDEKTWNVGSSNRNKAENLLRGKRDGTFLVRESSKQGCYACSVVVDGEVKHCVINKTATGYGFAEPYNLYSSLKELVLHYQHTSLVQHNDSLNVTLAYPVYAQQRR", "T1 sequence (P42336 whole entry, the tested form may be a part, canonical isoform)": "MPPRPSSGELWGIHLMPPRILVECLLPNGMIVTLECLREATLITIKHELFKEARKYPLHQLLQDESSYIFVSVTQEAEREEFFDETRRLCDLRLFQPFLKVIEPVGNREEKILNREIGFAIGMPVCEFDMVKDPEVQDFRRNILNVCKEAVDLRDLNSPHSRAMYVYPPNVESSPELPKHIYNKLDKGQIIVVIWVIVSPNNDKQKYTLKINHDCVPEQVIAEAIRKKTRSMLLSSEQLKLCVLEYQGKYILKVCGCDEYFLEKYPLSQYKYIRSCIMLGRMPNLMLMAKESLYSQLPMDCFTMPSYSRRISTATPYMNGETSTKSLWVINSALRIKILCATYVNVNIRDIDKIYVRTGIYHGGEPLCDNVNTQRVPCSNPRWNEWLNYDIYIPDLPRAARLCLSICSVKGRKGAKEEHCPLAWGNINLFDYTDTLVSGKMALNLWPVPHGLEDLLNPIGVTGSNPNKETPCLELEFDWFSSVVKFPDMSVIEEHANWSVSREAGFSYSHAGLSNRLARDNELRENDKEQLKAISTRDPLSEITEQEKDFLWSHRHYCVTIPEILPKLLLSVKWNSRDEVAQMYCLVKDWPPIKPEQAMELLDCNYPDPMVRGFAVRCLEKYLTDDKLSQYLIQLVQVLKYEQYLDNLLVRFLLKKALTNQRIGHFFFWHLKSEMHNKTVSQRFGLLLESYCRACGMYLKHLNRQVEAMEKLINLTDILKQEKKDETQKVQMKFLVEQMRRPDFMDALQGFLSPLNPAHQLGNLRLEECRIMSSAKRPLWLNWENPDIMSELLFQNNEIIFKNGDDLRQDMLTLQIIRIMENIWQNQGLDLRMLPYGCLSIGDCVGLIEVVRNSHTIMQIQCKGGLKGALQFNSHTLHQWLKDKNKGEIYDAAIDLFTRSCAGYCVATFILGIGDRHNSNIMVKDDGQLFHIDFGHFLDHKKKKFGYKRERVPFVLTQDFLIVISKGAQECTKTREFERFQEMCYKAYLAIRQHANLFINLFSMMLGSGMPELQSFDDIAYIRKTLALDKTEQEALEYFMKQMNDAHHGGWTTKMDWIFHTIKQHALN", "test": "In Vitro PI3K Enzyme Assay (AlphaScreen)", "type": "biochemical", "details": "Test (a); read-out: IC50 versus p110α Type Ia human PI3K", "text": "(a) In Vitro PI3K Enzyme Assay\nThe assay used AlphaScreen technology (Gray et al., Analytical Biochemistry, 2003, 313: 234-245) to determine the ability of test compounds to inhibit phosphorylation by recombinant Type I PI3K enzymes of the lipid PI(4,5)P2.\nDNA fragments encoding human PI3K catalytic and regulatory subunits were isolated from cDNA libraries using standard molecular biology and PCR cloning techniques. The selected DNA fragments were used to generate baculovirus expression vectors. In particular, full length DNA of each of the p110α, p110β and p110δ Type Ia human PI3K p110 isoforms (EMBL Accession Nos. HSU79143, S67334, Y10055 for p110α, p110β and p110δ respectively) were sub-cloned into a pDEST10 vector (Invitrogen Limited, Fountain Drive, Paisley, UK). The vector is a Gateway-adapted version of Fastbac1 containing a 6-His epitope tag. […]\nEach reaction was stopped by the addition of 10 μl of a mixture of EDTA (100 mM), bovine serum albumin (BSA, 0.045%) and Tris-HCl pH7.6 buffer (40 mM). […] The resultant signals arising from laser light excitation at 680 nm were read using a Packard AlphaQuest instrument. […]"}, "[1]": {"molecular_target": "mTOR PI kinase-related kinase (Homo sapiens, UniProt P42345)", "sequence (P42345 1362-2549)": "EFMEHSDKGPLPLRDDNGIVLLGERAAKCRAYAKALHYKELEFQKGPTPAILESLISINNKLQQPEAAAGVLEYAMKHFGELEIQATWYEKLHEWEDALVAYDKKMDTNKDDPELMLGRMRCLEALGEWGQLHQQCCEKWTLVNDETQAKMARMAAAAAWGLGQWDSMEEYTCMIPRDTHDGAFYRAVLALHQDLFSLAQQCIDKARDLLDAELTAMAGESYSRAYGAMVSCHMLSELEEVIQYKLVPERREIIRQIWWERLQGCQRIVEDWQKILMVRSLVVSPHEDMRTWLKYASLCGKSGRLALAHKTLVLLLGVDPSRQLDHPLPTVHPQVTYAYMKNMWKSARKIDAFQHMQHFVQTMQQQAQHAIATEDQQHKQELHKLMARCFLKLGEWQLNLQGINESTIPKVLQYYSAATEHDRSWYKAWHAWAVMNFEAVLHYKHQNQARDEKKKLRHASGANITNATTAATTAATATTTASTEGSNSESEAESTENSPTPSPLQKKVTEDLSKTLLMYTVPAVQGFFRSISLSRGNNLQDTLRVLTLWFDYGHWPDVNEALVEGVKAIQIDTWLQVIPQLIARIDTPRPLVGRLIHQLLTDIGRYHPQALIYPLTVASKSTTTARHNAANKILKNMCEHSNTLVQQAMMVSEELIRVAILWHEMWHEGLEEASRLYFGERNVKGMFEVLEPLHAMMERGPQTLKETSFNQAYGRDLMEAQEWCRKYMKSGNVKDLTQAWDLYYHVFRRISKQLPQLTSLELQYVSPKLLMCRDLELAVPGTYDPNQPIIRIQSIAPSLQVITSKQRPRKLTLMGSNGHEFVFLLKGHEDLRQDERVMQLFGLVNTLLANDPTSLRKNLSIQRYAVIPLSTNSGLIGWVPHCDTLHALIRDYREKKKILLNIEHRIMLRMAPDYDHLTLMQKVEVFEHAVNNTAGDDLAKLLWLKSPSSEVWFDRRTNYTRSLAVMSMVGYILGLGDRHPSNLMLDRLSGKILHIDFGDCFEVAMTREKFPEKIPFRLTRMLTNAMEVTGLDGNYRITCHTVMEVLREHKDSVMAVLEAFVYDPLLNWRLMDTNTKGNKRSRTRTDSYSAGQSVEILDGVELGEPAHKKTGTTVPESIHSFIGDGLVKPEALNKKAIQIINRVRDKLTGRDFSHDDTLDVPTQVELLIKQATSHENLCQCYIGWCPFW", "test": "In Vitro mTOR PI kinase-related Kinase Assay (AlphaScreen)", "type": "biochemical", "details": "Test (b); read-out: IC50 versus mTOR PI kinase-related kinase", "protocol": "(b) In Vitro mTOR PI kinase-related Kinase Assay The assay used AlphaScreen technology (Gray et al., Analytical Biochemistry, 2003, 313: 234-245) to determine the ability of test compounds to inhibit phosphorylation by recombinant mTOR. […]\nEach reaction was stopped by the addition of 10 μl of a mixture of EDTA (50 mM), bovine serum albumin (BSA; 0.5 mg/ml) and Tris-HCl pH7.4 buffer (50 mM) containing p70 S6 Kinase (T389) IA5 Monoclonal Antibody (Cell Signalling Technology, Catalogue No. 9206B) and AlphaScreen Streptavidin donor and Protein A acceptor beads (200 ng; Perkin Elmer, Catalogue No. 6760002B and 6760137R respectively) were added and the assay plates were left for about 20 hours at room temperature in the dark. The resultant signals arising from laser light excitation at 680 nm were read using a Packard Envision instrument.\nPhosphorylated biotinylated peptide is formed in situ as a result of mTOR mediated phosphorylation. […] Upon laser light excitation at 680 nm, the donor bead: acceptor bead complex produces a signal that can be measured. […] In the presence of an mTOR kinase inhibitor, signal strength is reduced. mTOR enzyme inhibition for a given test compound was expressed as an IC50 value."}, "[2]": {"system": "phosphorylation of Serine 473 in Akt in MDA-MB-468 human breast adenocarcinoma cell line", "test": "In Vitro Phospho-Ser473 Akt Assay", "type": "cell-based", "details": "Test (c), MDA-MB-468 cells, read-out: IC50, inhibition of phosphorylation of Serine 473 in Akt", "protocol": "(c) In Vitro Phospho-Ser473 Akt Assay\nThis assay determines the ability of test compounds to inhibit phosphorylation of Serine 473 in Akt as assessed using Acumen Explorer technology (TTP LabTech Limited, Royston, Herts, SG8 6EE, UK), a plate reader that can be used to rapidly quantitate features of images generated by laser-scanning.\nA MDA-MB-468 human breast adenocarcinoma cell line (LGC Promochem, Teddington, Middlesex, UK, Catalogue No. HTB-132) was routinely maintained at 37° C. with 5% CO2 up to a confluency of 70-90% in DMEM containing 10% FCS and 1% L-glutamine.\nFor the assay, the cells were detached from the culture flask using ‘Accutase’ (Innovative Cell Technologies Inc., San Diego, Calif., USA; Catalogue No. AT104) using standard tissue culture methods and resuspended in media to give 5.5×10^4 cells per ml. Aliquots (90 μl) were seeded into each of the inner 60 wells of a black ‘Costar’ 96-well plate (Corning Inc., NY, USA; Catalogue No. 3904) to give a density of 5000 cells per well. Aliquots (90 μl) of culture media were placed in the outer wells to prevent edge effects. [An alternative cell handling procedure involved the maintenance of the cells in a ‘SelecT’ robotic device (The Automation Partnership, Royston, Herts SG8 5WY, UK). Cells were resuspended in media to give 5×10^4 cells per ml. Aliquots (100 μl) were seeded into the wells of a black ‘Costar’ 96-well plate.] […]"}}}
{"smiles": "CC(=O)Nc1ncc(-c2cc(NS(=O)(=O)c3ccccc3)cnc2C)s1", "note": "[Example 1, N-[5-(5-benzenesulphonamido-2-methylpyridin-3-yl)thiazol-2-yl]acetamide]", "values": [{"measurement": "IC50", "setting": "p110α Type Ia human PI3K", "value": "~5", "unit": "µM"}, {"measurement": "IC50", "setting": "[1]", "value": "~0.5", "unit": "µM"}, {"measurement": "IC50", "setting": "[2]", "value": "~10", "unit": "µM"}]}
